Laboratory results published in US20080139534A1, “Bisbenzamidines and bisbenzamidoximes for the treatment of human African trypanosomiasis” (XAVIER UNIVERSITY OF LOUISIANA, priority 2006, published 2008).
Like-named read-outs stand apart in the source and are kept apart here. Marks after values point to notes of the source that are not given here.

How the values were obtained:
[1] = tested on: calf thymus DNA; assay: Thermal denaturation study, DNA binding affinity (ΔTm); details: 1:5 compound to base pair ratio;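 note: shift in midpoint melting temperature of calf thymus DNA thermal denaturation curves caused by compound binding, values averaged over at least two determinations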
Protocol: (§1) The binding affinity was measured by determining the change in the midpoint (Tm) of the thermal denaturation curves of calf thymus DNA as well as poly(dA-dT) at a 1:5 compound to base pair ratio.

[2] = tested on: poly(dA-dT); assay: as above; details: 1:5 compound to base pair ratio;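 note: shift in the midpoint temperature of the thermal melting curve of poly(dA-dT), each value the mean of two or more independent determinations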
Protocol: as §1

[3] = tested on: T. b. rhodesiense KETRI 243; assay: In vitro trypanocidal activity, bloodforms in HMI-18 medium, Coulter counts; type: cell-based, Trypanosoma brucei rhodesiense; details: 48 h exposure
Protocol: (§2) The compounds were tested against trypanosome isolates grown as blood forms in HMI-18 medium containing 20% horse serum in 24 well microplates at 37° C. in 5% CO2. Wells were inoculated with 1×10^5 trypanosomes. […] One-half the volume was replaced daily. Cell counts were made daily with a Coulter Counter, Model Z1 (Beckman Coulter, Miami, Fla., USA). Cells were diluted with Isoton I buffer (Beckman Coulter) and the aperture was standardized at 5.14 μm. Background checks were performed daily on 1:10 dilutions of medium. Counts, normalization, and coincident counts were accounted for by the standardized Coulter analysis program. Occasionally, hemocytometer counts were performed as a check on the validity of the Coulter program. IC50 values were determined after 48 h from semi-log plots and the values are the result of duplicate determinations. Initially a broad concentration curve was used and then a close concentration curve from which IC50 values were determined. Assays were done in duplicate and each point was the average of the two. Control cells grew to 5×10^6/ml.
(§3) Coulter counts were made daily and IC50 values determined after 48 hours exposure.

[4] = tested on: T. b. brucei Lab 110 EATRO; assay: as above; type: cell-based, Trypanosoma brucei brucei; details: 48 h exposure, bloodforms, read-out: Lab 100 EATRO IC50
Protocol: as §2, §3

[5] = tested on: T. b. brucei Lab 110 EATRO; assay: In vivo efficacy in infected mice; design: species or system Trypanosoma brucei brucei
Protocol: Female Swiss-Webster mice (weight, 20 g) were infected (intraperitoneally) with 2.5×10^5 trypanosomes from rat blood, and the infection was allowed to develop for 24 h before drug treatment was begun. Groups of three mice each were injected (intraperitoneally) with each drug concentration. All of the experiments included a group of untreated controls. […] Parasitemia of animals dying of infection averaged 0.5-1.0×10^9/mL of blood. These infections are very predictable and daily counts were not done because of the labor involved. […] Animals were monitored weekly for parasites in tail vein blood smears. Mice were considered cured if they survived more than 30 days after the death of the last control with no parasites in tail vein blood smears. MSD (mean survival in days) was also recorded for each group. It is the average time of survival of the animals in the group, exclusive of cured animals.
Mice were infected with 250,000 parasites and dosing commenced 24 h. post infection. Mice were separated into groups of three and given single i.p doses for 3 days unless otherwise noted. Infected untreated controls were used for each experiment. Mice were considered cured if surviving more than 30 days beyond death of controls without parasites in tail vein blood smears. MSD, mean survival in days, exclusive of cured animals.

[6] = Trypanosoma brucei, RHODESIENSE
[7] = mice, 1 mg/kg/day i.p. for 3 days
[8] = mice, 5 mg/kg/day i.p. for 3 days
[9] = mice, 10 mg/kg/day i.p. for 3 days
[10] = mice, 1, 2.5, 5, 10, 15, 25 mg/kg/day i.p. for 3 days (all doses failed to cure)
[11] = mice, 1, 2.5, 5, 10, 15, 25 mg/kg/day i.p. for 3 days (all doses)

Cl.Cl.c1cc(C2=NCCN2)ccc1CC1CCCN(c2ccc(C3=NCCN3)cc2)C1 (stereo not shown) [4CF]
DNA Binding Δ Tm Calf thymus [1]: 9.9 °C | DNA Binding Δ Tm Poly (dA-dT) [2]: 14.1 °C | IC50 [3]: 85 nM | IC50 [4]: 86 nM

O=[N+]([O-])c1ccc(N2CCN(c3ccc([N+](=O)[O-])cc3)CC2)cc1 [compound 0119]
DNA Binding Δ Tm Calf thymus [1]: 0.1 °C | DNA Binding Δ Tm Poly (dA-dT) [2]: 0.0 °C | IC50 [3]: 250 nM | IC50 [4]: 137 nM

c1ccc2[nH]c(-c3ccc(N4CCN(c5ccc(-c6nc7ccccc7[nH]6)cc5)CC4)cc3)nc2c1 [compound 0115, 1,4-bis[4-(1H-benzymidazol-2-yl)phenyl]piperazine]
DNA Binding Δ Tm Calf thymus [1]: 0.1 °C | DNA Binding Δ Tm Poly (dA-dT) [2]: 2.0 °C | IC50 [3, 6]: 5800 nM | IC50 ([4]; Trypanosoma brucei): 1150 nM

CCOC(=O)c1ccc(N2CCN(c3ccc(C(=O)OCC)cc3)CC2)cc1 [compound 0118]
DNA Binding Δ Tm Calf thymus [1]: 0.6 °C | DNA Binding Δ Tm Poly (dA-dT) [2]: 0.0 °C | IC50 [3]: 350 nM | IC50 [4]: 340 nM

N=C(N)c1ccc(NC(=O)CCC(=O)Nc2ccc(C(=N)N)cc2)cc1 [compound 0707]
IC50 [3]: 2190 nM | IC50 [4]: 9000 nM

C(=C1CCCN(c2ccc(C3=NCCN3)cc2)C1)c1ccc(C2=NCCN2)cc1.Cl.Cl (mixture of isomers) [3SF]
DNA Binding Δ Tm Calf thymus [1]: 12.0 °C | DNA Binding Δ Tm Poly (dA-dT) [2]: 15.0 °C | IC50 [3]: 84 nM | IC50 [4]: 71 nM

Cl.Cl.N=C(NC1CCC1)c1ccc(N2CCN(c3ccc(C(=N)NC4CCC4)cc3)CC2)cc1 [compound 0143]
DNA Binding Δ Tm Calf thymus [1]: 16.4 °C | IC50 [3]: 51 nM | IC50 [4]: 6 nM | # Cured/#Treated (%) [5, 7]: 0/3 | MSD [5, 7]: 5 days | MSD [5, 8]: 11 days | MSD [5, 9]: >30 days

N=C(N)c1ccc(NC(=O)CCCCCCCCCCC(=O)Nc2ccc(C(=N)N)cc2)cc1 [compound 0711]
IC50 [3]: 6.6 nM | IC50 [4]: 8.4 nM | # Cured/#Treated (%) [5, 10]: 0/3^a | MSD [5, 11]: 5 to 10.3 days

Cl.Cl.c1cc(N2CCN(c3ccc(C4=NCCN4)cc3)CC2)ccc1C1=NCCN1 [compound 0126]
DNA Binding Δ Tm Calf thymus [1]: 15.0 °C | DNA Binding Δ Tm Poly (dA-dT) [2]: 19.4 °C | IC50 [3]: 6.5 nM | IC50 [4]: 16 nM

N=C(N)c1ccc(NC(=O)CCCCCCCC(=O)Nc2ccc(C(=N)N)cc2)cc1 [compound 0708]
IC50 [3]: 240 nM | IC50 [4]: 400 nM

Cl.Cl.N=C(NC1CCCCCCC1)c1ccc(N2CCN(c3ccc(C(=N)NC4CCCCCCC4)cc3)CC2)cc1 [compound 0134]
DNA Binding Δ Tm Calf thymus [1]: 12.6 °C | DNA Binding Δ Tm Poly (dA-dT) [2]: 15.7 °C | IC50 [4]: 2.3 nM

Cl.Cl.N=C(NC1CC1)c1ccc(N2CCN(c3ccc(C(=N)NC4CC4)cc3)CC2)cc1 [63C, N,N′-Dicyclopropyl 4,4′-(1,4-piperazinediyl)bisbenzenecarboxidamide]
DNA Binding Δ Tm Calf thymus [1]: 14.5 °C | DNA Binding Δ Tm Poly (dA-dT) [2]: 23.9 °C

N=C(NO)c1ccc(N2CCN(c3ccc(C(=N)NO)cc3)CC2)cc1 [compound 0125, N,N′-Dihydroxy 4,4′-(1,4-piperazinediyl)bisbenzenecarboxidamide]
DNA Binding Δ Tm Calf thymus [1]: 0.8 °C | IC50 [3, 6]: 1920 nM | IC50 ([4]; Trypanosoma brucei): 1020 nM | # Cured/#Treated (%) ([5]; mice, 50 mg/kg/day (po)): 0/3 | MSD ([5]; mice, 50 mg/kg/day (po)): 5 days | # Cured/#Treated (%) ([5]; mice, 100 mg/kg/day (po)): 0/3 | MSD ([5]; mice, 100 mg/kg/day (po)): 5 days | MSD ([5]; mice, 100 mg/kg/day (split dose, po; 9am and 4 pm)): >30 days

N=C(N)c1ccc(OCc2cccc(COc3ccc(C(=N)N)cc3)c2)cc1 [compound 0512]
DNA Binding Δ Tm Calf thymus [1]: 14.0 °C | IC50 [3]: 1.5 nM | IC50 [4]: 0.74 nM | # Cured/#Treated (%) [5, 7]: 0/3 | MSD [5, 7]: 8 days | # Cured/#Treated (%) [5, 8]: 0/3 | MSD [5, 8]: 18 days | MSD [5, 9]: >30 days | MSD ([5]; mice, 15 mg/kg/day i.p. for 3 days): >30 days

N=C(NO)c1ccc(NC(=O)c2cccc(C(=O)Nc3ccc(C(=N)NO)cc3)c2)cc1 [compound 0323]
DNA Binding Δ Tm Calf thymus [1]: 0.6 °C | DNA Binding Δ Tm Poly (dA-dT) [2]: 0.1 °C

N=C(N)c1ccc(OC(=O)c2ccc(C(=O)Oc3ccc(C(=N)N)cc3)cc2)cc1 [compound 0432]
DNA Binding Δ Tm Calf thymus [1]: 9.9 °C | IC50 [3]: 3100 nM | IC50 [4]: 4300 nM

N=C(N)c1cccc(NC(=O)CCCCC(=O)Nc2cccc(C(=N)N)c2)c1 [compound 0715]
IC50 [3]: 21 nM | IC50 [4]: 41 nM

N=C(NO)c1ccc(C(=O)Nc2ccc(NC(=O)c3ccc(C(=N)NO)cc3)cc2)cc1 [compound 0353]
DNA Binding Δ Tm Calf thymus [1]: 0.4 °C | DNA Binding Δ Tm Poly (dA-dT) [2]: 0.1 °C

N#Cc1ccc(NC(=O)CC(=O)Nc2ccc(C#N)cc2)cc1 [compound 0712]
IC50 [3]: 1600 nM | IC50 [4]: 5000 nM

O=Cc1ccc(N2CCN(c3ccc(C=O)cc3)CC2)cc1 [compound 0107]
DNA Binding Δ Tm Calf thymus [1]: −0.2 °C | DNA Binding Δ Tm Poly (dA-dT) [2]: 0.0 °C

N=C(NO)c1ccc(NC(=O)c2ccc(C(=O)Nc3ccc(C(=N)NO)cc3)cc2)cc1 [compound 0333]
DNA Binding Δ Tm Calf thymus [1]: 0.6 °C | DNA Binding Δ Tm Poly (dA-dT) [2]: 0.0 °C

Cl.Cl.c1cc(N2CCCN(c3ccc(C4=NCCCN4)cc3)CC2)ccc1C1=NCCCN1 [732N]
DNA Binding Δ Tm Calf thymus [1]: 15.5 °C | DNA Binding Δ Tm Poly (dA-dT) [2]: 21.3 °C

N#Cc1ccc(NC(=O)C(=O)Nc2ccc(C#N)cc2)cc1 [compound 0713]
IC50 [3]: 340 nM | IC50 [4]: 680 nM

O=C(Nc1ccccc1)C(=O)Nc1ccccc1 [compound 0714]
IC50 [3]: 155 nM

N/C(=N\O)c1ccc(NC(=O)CCCC(=O)Nc2ccc(/C(N)=N/O)cc2)cc1 [compound 0704, N,N′-bis[4-(N-Hydroxyamidino)phenyl]pentanediamide]
IC50 [3, 6]: 10000 nM | IC50 ([4]; Trypanosoma brucei): 7300 nM

CCCCCCCCCCNC(=N)c1ccc(N2CCN(c3ccc(C(=N)NCCCCCCCCCC)cc3)CC2)cc1.Cl.Cl [compound 0131]
DNA Binding Δ Tm Calf thymus [1]: 1.3 °C | IC50 [3]: 220 nM | IC50 [4]: 180 nM | # Cured/#Treated (%) [5, 10]: 0/3^a | MSD [5, 11]: 5 days

N=C(NO)c1ccc(C(=O)Nc2cccc(NC(=O)c3ccc(C(=N)NO)cc3)c2)cc1 [compound 0343]
DNA Binding Δ Tm Calf thymus [1]: −0.3 °C | DNA Binding Δ Tm Poly (dA-dT) [2]: 0.1 °C

N=C(N)c1ccc(OCCCCCOc2ccc(C(=N)N)cc2)cc1 [Pentamidine, reference compound]
DNA Binding Δ Tm Calf thymus [1]: 11.1 °C | DNA Binding Δ Tm Poly (dA-dT) [2]: 20.6 °C | IC50 [3, 6]: 2.32 nM | # Cured/#Treated (%) ([5]; mice, 1, 2.5, 5, 10, 25 mg/kg/day i.p. for 3 days (all doses cured)): 5/5* | MSD ([5]; mice, 1, 2.5, 5, 10, 25 mg/kg/day i.p. for 3 days (all doses)): >30 days

NC(=O)c1cccc(NC(=O)CCCCC(=O)Nc2cccc(C(N)=O)c2)c1 [compound 0717]
IC50 [3]: 1980 nM | # Cured/#Treated (%) [5, 10]: 0/3^a | MSD [5, 11]: 5 days

CCCCCNC(=N)c1ccc(N2CCN(c3ccc(C(=N)NCCCCC)cc3)CC2)cc1.Cl.Cl [compound 0127]
DNA Binding Δ Tm Calf thymus [1]: 16.9 °C | DNA Binding Δ Tm Poly (dA-dT) [2]: 22.5 °C | IC50 [4]: 3 nM

NC(=O)c1ccc(NC(=O)CCCCC(=O)Nc2ccc(C(N)=O)cc2)cc1 [compound 0716]
IC50 [3]: 1100 nM | IC50 [4]: 2800 nM

Cl.Cl.c1cc(N2CCN(c3ccc(C4=NCCCN4)cc3)CC2)ccc1C1=NCCCN1 [632N]
DNA Binding Δ Tm Calf thymus [1]: 12.2 °C | DNA Binding Δ Tm Poly (dA-dT) [2]: 17.9 °C

CCCCCCCCNC(=N)c1ccc(N2CCN(c3ccc(C(=N)NCCCCCCCC)cc3)CC2)cc1.Cl.Cl [compound 0130]
DNA Binding Δ Tm Calf thymus [1]: 4.2 °C | IC50 [3]: 19 nM | IC50 [4]: 3.65 nM | # Cured/#Treated (%) ([5]; mice, 1, 2.5, 5, 10, 15, 20 mg/kg/day i.p. for 3 days (all doses failed to cure)): 0/3^a | MSD ([5]; mice, 1, 2.5, 5, 10, 15, 20 mg/kg/day i.p. for 3 days (all doses)): 5 days

N=C(N)c1ccc(NC(=O)CCCCC(=O)Nc2cccc(C(=N)N)c2)cc1 [compound 0721]
IC50 [3]: 7 nM | IC50 [4]: 12.5 nM
